PMC12569736 (Journal of Cosmetic Dermatology, 2025)
Where two headings read alike, the source gives them in different places.

What was measured:
B16‐F10 cells = experiment: Cell viability, B16‐F10; format: cell-based, murine; conditions: B16‐F10, 72 h, up to 50 μM
Method: (§1) B16‐F10, MNT‐1, and HaCaT cells (5000 cells/well) were seeded into 96‐well plates and incubated overnight. Culture medium (50 μL) containing varying concentrations of KT‐939 was added to each well, and cells were incubated for 72 h. Cell viability was assessed using the Cell Viability Assay Kit (Vazyme Biotech), following the manufacturer's instructions. Luminescence was measured using a Synergy H1 Hybrid Reader. DMSO‐treated cells served as the control, and survival rates were calculated and analyzed with GraphPad software.
(§2) B16‐F10, MNT‐1, and HaCaT cells were incubated with different concentrations of KT‐939 for 72 h. Cell viability was assessed and normalized to the DMSO‐treated control group.

[1] = DPPH radical scavenging assay
Method: A DPPH radical scavenging assay kit (Solarbio) was used to assess antioxidant activity, following the manufacturer's instructions. Briefly, 10 μL of each test compound at the indicated concentrations was mixed with 190 μL DPPH solution in a 96‐well plate. Control wells (10 μL compound + 190 μL ethanol) and blank wells (10 μL solvent + 190 μL ethanol) were included. The reaction mixtures were gently shaken and incubated for 30 min at room temperature in the dark. Absorbance was measured at 515 nm using a Synergy H1 Hybrid Reader.
A DPPH radical scavenging assay was conducted to evaluate the antioxidant activity of KT‐939 at various concentrations, with a maximum concentration of 10 mM in a 5‐fold dilution series. Data represent mean ± standard deviation of three independent experiments.

MNT‐1 cells [2] = experiment: Melanin content in MNT‐1 cells after 6 days of treatment; format: cell-based, human
Method: MNT‐1 cells were exposed to varying concentrations of test compounds for 6 days. After treatment, cells were harvested and lysed in RIPA buffer on ice for 20 min. Lysates were centrifuged at 13 000 rpm for 10 min at 4°C, and the supernatant was collected. Protein concentration was quantified using a BCA Protein Assay Kit (Thermo Fisher). To extract melanin, cell pellets were dissolved in 1 M NaOH and incubated for 3 h at 80°C. Absorbance at 405 nm was measured using a Synergy H1 Hybrid Reader. Melanin content was quantified by referencing a standard curve of synthetic melanin (maximum concentration 50 μg/mL, 2‐fold gradient dilution, 8 concentration points). Melanin content was normalized to protein concentration (μg melanin/mg protein), and IC50 values were calculated using GraphPad software.
FIGURE 3 Inhibition of melanin production in MNT‐1 by KT‐939, Thiamidol, and 4‐butylresorcinol. MNT‐1 cells were treated with different concentrations of KT‐939, Thiamidol, or 4‐butylresorcinol for 6 days. The melanin content was quantified based on the standard curve of melanin, and the melanin content per mg of protein was utilized for IC50 calculations with GraphPad software.

MNT‐1 cells [3] = experiment: Cell viability, MNT‐1; format: cell-based, human; conditions: MNT‐1, 72 h, up to 50 μM
Method: as §1, §2

MNT‐1 cells [4] = experiment: Wash‐out assay, melanin content in MNT‐1 cells after drug withdrawal; format: cell-based, human; conditions: for inhibition at 1 µM / inhibition at 10 µM: Homo sapiens, read-out: melanin inhibition rate after washout; for inhibition at 1 µM: MNT-1, 1 μM for 6 days; for inhibition at 10 µM: MNT-1, 10 μM for 6 days
Method: MNT‐1 cells were treated with 1 or 10 μM KT‐939 for six days, after which the drug‐containing medium was replaced with standard culture medium. Melanin content was measured at various time points.
FIGURE 4 The inhibitory effect of KT‐939 on melanin production is reversible. MNT‐1 cells were exposed to 1 or 10 μM of KT‐939 for 6 days, followed by drug washout and replacement with normal medium. Melanin content was measured at specified time points. Data represent the mean ± standard deviation of three independent experiments.

human tyrosinase (hTYR) = biological target: T1, human tyrosinase (hTYR) (Homo sapiens, UniProt P14679); experiment: L‐DOPA oxidation assay for tyrosinase activity (MNT‐1 cell lysate); format: biochemical
T1 construct: tyrosinase enzyme solution derived from MNT‐1 cells; endogenous in cells; host or cells: MNT-1 human melanoma cell line (crude lysate supernatant)
T1 sequence (P14679 19-529): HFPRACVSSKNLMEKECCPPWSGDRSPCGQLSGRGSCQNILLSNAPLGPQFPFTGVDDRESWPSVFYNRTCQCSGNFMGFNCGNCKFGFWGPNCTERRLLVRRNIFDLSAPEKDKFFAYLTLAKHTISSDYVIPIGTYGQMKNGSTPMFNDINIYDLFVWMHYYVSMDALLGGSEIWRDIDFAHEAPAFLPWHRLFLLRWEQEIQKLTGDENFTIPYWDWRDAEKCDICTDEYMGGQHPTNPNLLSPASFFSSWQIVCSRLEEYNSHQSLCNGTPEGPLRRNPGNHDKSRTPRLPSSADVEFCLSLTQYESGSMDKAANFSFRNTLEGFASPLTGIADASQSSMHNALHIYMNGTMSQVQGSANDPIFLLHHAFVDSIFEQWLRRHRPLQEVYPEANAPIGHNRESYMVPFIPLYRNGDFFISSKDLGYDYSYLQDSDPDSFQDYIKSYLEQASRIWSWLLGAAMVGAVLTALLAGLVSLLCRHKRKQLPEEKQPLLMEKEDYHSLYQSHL
Method: The hTYR‐mediated L‐DOPA oxidation assay was performed according to Winder and Harris. MNT‐1 cells were resuspended in 0.05 M sodium phosphate buffer (pH 6.9) and sonicated for 1 min. After incubation on ice for 3–5 min, the mixture underwent a second sonication. The lysate was centrifuged at 13 000 rpm for 15 min at 4°C, and the supernatant was collected and kept on ice.
For the assay, 20 μL of crude enzyme solution and 80 μL sodium phosphate buffer were added to a 96‐well plate and centrifuged at 1000 rpm for 30 s. Subsequently, 2 μL of different concentrations of test compounds were added to each well, followed by centrifugation at 1000 rpm for 30 s. Finally, 100 μL L‐DOPA (final concentration 4 mM) was added to initiate the reaction. The microplate reader (Synergy H1 Hybrid Reader, BioTek) was used to monitor the reaction at 26°C, measuring absorbance at 475 nm every minute for 60 min. IC50 values were calculated using GraphPad software based on Vmax values from the kinetic curves.
The L‐DOPA tyrosinase assay was performed using a tyrosinase enzyme solution derived from MNT‐1 cells in 50 mM sodium phosphate buffer (pH 6.9), with a substrate (L‐DOPA) concentration of 4 mM and various concentrations of inhibitors as indicated. Data represent mean ± standard deviation of three independent experiments.

IC50 (MNT‐1 cells [2]; Homo sapiens, 144 h, MNT‐1, 6 days, read-out: IC50 of melanin production): 360 nM | IC50 (human tyrosinase (hTYR); MNT‐1 lysate, L‐DOPA 4 mM, pH 6.9, read-out: IC50 against hTYR): 70 nM | inhibition of hTYR (human tyrosinase (hTYR); at concentrations ≥ 0.4 μM): nearly complete inhibition | fold greater hTYR potency than 4‐butylresorcinol (human tyrosinase (hTYR); ratio of IC50, vs 4‐butylresorcinol): ~100 fold | fold greater hTYR potency than 377 (human tyrosinase (hTYR); ratio of IC50, vs 377): over 300 fold | fold greater hTYR potency than Thiamidol (human tyrosinase (hTYR); ratio of IC50, vs Thiamidol): ~ 4 fold | fold greater hTYR potency than resveratrol (human tyrosinase (hTYR); ratio of IC50, vs resveratrol): ~86 fold
SMILES: CC1(C(=O)Nc2nc(-c3ccc(O)cc3O)cs2)COC1 [KT‐939, N‐(4‐(2,4‐Dihydroxyphenyl) Thiazol‐2‐yl)‐3‐Methyloxetane‐3‐Carboxamide]
cytotoxicity (cell viability) (B16‐F10 cells): no significant cytotoxicity | DPPH clearance rate ([1]; 0.4 mM): 8.9% | DPPH clearance rate ([1]; 2 mM): 20.2% | DPPH clearance rate ([1]; 10 mM): 43.2% | DPPH clearance rate ([1]; as summed up in the discussion, concentration not given): exceeding 40% | inhibition at 0.37 µM (MNT‐1 cells [2]; Homo sapiens, MNT-1, 144 h, 0.37 μM, 6 days, read-out: inhibition of melanin production): 48.4% | inhibition at 1.1 µM (MNT‐1 cells [2]; Homo sapiens, MNT-1, 144 h, 1.1 μM, 6 days, read-out: inhibition of melanin production): 63.3% | inhibition at 3.3 µM (MNT‐1 cells [2]; Homo sapiens, MNT-1, 144 h, 3.3 μM, 6 days, read-out: inhibition of melanin production): 83.9% | inhibition at 10 µM (MNT‐1 cells [2]; Homo sapiens, MNT-1, 144 h, 10 μM, 6 days, read-out: inhibition of melanin production): 86.7% | fold greater melanin inhibitory potency compared to Thiamidol (MNT‐1 cells [2]; ratio of IC50, vs Thiamidol): approximately 3.6 fold | cytotoxicity (cell viability) (MNT‐1 cells [3]): no significant cytotoxicity | melanin inhibition after washout (MNT‐1 cells [4]; 1 μM for 6 days, after seven days): returning to baseline | melanin content after washout (MNT‐1 cells [4]; 10 μM for 6 days, after 11 days of drug withdrawal): fully returned to normal levels | inhibition at 1 µM (MNT‐1 cells [4]; day 3 after washout): 38% | inhibition at 1 µM (MNT‐1 cells [4]; day 5 after washout): 28.3% | inhibition at 10 µM (MNT‐1 cells [4]; day 3 after washout): 66.6% | inhibition at 10 µM (MNT‐1 cells [4]; day 5 after washout): 52.7% | inhibition at 10 µM (MNT‐1 cells [4]; day 7 after washout): 21.3% | inhibition at 10 µM (MNT‐1 cells [4]; day 9 after washout): 20%
